This note sets out measurements from patent publication US20260274833A1 (NiKang Therapeutics, Inc., priority 2022, published 2026).

The target in this assay is T1, CDK2 (Homo sapiens, UniProt P24941).
T1 construct: endogenous in cells; host or cells: OVCAR3 cells
The assay is described as follows: Phospho-RB measurement in OVCAR3 cells (HTRF phospho-RB cellular kit). The class given is cell-based. To be noted: inhibition of RB phosphorylation at S807/811 (HTRF, TR-FRET ratio 665/620), 24 h compound treatment, 0.3 to 10,000 nM. The method, boiled down: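 IC50 came from a four-parameter logistic fit of the DMSO-normalized TR-FRET ratio (665/620 nm). That ratio reflects RB phosphorylation at S807/811, read with an HTRF antibody pair 4 h after adding lysate at room temperature.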
(In general: Time-resolved FRET reads energy transfer from a long-lived donor to a nearby acceptor.)
Turning to `CC1c2ccccc2CN1S(=O)(=O)Nc1cccc(-c2nc(C(C)(C)C)sc2-c2ccnc(NC3CCN(S(=O)(=O)N4CCNCC4)CC3)n2)c1F` (stereo not shown) [Example 148, N-(3-(2-(tert-butyl)-5-(2-((1-(piperazin-1-ylsulfonyl)piperidin-4-yl)amino)-pyrimidin-4-yl)thiazol-4-yl)-2-fluoro-phenyl)-1-methylisoindoline-2-sulfonamide], the IC50 (commonly the concentration needed to halve the response being measured) stood at 210 nM.

With `O=S1(=O)CC2(CC(Nc3nccc(-c4sc(C56CC(C5)C6)nc4-c4cccc(NS(=O)(=O)N5C6CCC5c5ccccc56)c4F)n3)C2)C1` [Example 268, N-(3-(2-(bicyclo [1.1.1]pentan-1-yl)-5-(2-((2,2-dioxido-2-thiaspiro[3.3]heptan-6-yl)amino)-pyrimidin-4-yl)thiazol-4-yl)-2-fluorophenyl)-1,2,3,4-tetrahydro-1,4-epiminonaphthalene-9-sulfonamide], the IC50 was 8310 nM.

With `CC(C)(C)c1nc(-c2cccc(NS(=O)(=O)N3Cc4cccnc4C3)c2F)c(-c2ccnc(NC3CCN(S(=O)(=O)N4CCNCC4)CC3)n2)s1` [Example 132, N-(3-(2-(tert-butyl)-5-(2-((1-(piperazin-1-ylsulfonyl)piperidin-4-yl)amino)-pyrimidin-4-yl)thiazol-4-yl)-2-fluoro-phenyl)-5,7-dihydro-6H-pyrrolo[3,4-b]-pyridine-6-sulfonamide], the IC50 turned out to be 310 nM.

Regarding `CC(C)(C)c1nc(-c2cccc(NS(=O)(=O)N3CCn4ccnc4C3)c2F)c(-c2ccnc(NC3CCN(S(C)(=O)=O)CC3)n2)s1` [Example 84, N-(3-(2-(tert-butyl)-5-(2-((1-(methylsulfonyl)-piperidin-4-yl)amino)-pyrimidin-4-yl)thiazol-4-yl)-2-fluoro-phenyl)-5,6-dihydroimidazo [1,2-a]-pyrazine-7(8H)-sulfonamide], the IC50 came out at 1920 nM.

With `CC(C)(C)c1nc(-c2cccc(NS(=O)(=O)N3Cc4cccc(Cc5ccccc5)c4C3)c2F)c(-c2ccnc(NC3CC4(C3)CS(=O)(=O)C4)n2)s1` [Example 232, 4-benzyl-N-(3-(2-(tert-butyl)-5-(2-((2,2-dioxido-2-thiaspiro[3.3]heptan-6-yl)amino)-pyrimidin-4-yl)thiazol-4-yl)-2-fluorophenyl)-isoindoline-2-sulfonamide], the IC50 turned out to be 939 nM.

Take `CN1CCN(S(=O)(=O)N2CCC(Nc3nccc(-c4sc(C(C)(C)C)nc4-c4cccc(NS(=O)(=O)N5Cc6cccnc6C5)c4F)n3)CC2)CC1` [Example 127, N-(3-(2-(tert-butyl)-5-(2-((1-((4-methyl-piperazin-1-yl)sulfonyl)piperidin-4-yl)amino)-pyrimidin-4-yl)thiazol-4-yl)-2-fluorophenyl)-5,7-dihydro-6H-pyrrolo[3,4-b] pyridine-6-sulfonamide]: the IC50 is 208 nM.

For the molecule `CC(C)(C)c1nc(-c2cccc(NS(=O)(=O)N3CCc4ccccc43)c2F)c(-c2ccnc(NC3CCN(S(C)(=O)=O)CC3)n2)s1` [Example 73, N-(3-(2-(tert-butyl)-5-(2-((1-(methylsulfonyl)-piperidin-4-yl)amino)-pyrimidin-4-yl)thiazol-4-yl)-2-fluoro-phenyl)indoline-1-sulfonamide], the IC50 is 58 nM.

On to `CC(C)(C)c1nc(-c2cccc(NS(=O)(=O)N3Cc4cccc(-c5cccc(C#N)c5)c4C3)c2F)c(-c2ccnc(NC3CCN(S(C)(=O)=O)CC3)n2)s1` [Example 227, N-(3-(2-(tert-butyl)-5-(2-((1-(methylsulfonyl)-piperidin-4-yl)amino)-pyrimidin-4-yl)thiazol-4-yl)-2-fluoro-phenyl)-4-(3-cyanophenyl)-isoindoline-2-sulfonamide], for which the IC50 was 517 nM.

Regarding `CC(C)(C)c1nc(-c2cccc(NS(=O)(=O)N3CCc4cc(C#N)ccc43)c2F)c(-c2ccnc(NC3CC4(C3)CS(=O)(=O)C4)n2)s1` [Example 195, N-(3-(2-(tert-butyl)-5-(2-((2,2-dioxido-2-thiaspiro[3.3]heptan-6-yl)amino)-pyrimidin-4-yl)thiazol-4-yl)-2-fluoro-phenyl)-5-cyanoindoline-1-sulfonamide], the IC50 is 320 nM.

Take `CC(C)(C)c1nc(-c2cccc(NS(=O)(=O)N3Cc4ccccc4C3)c2F)c(-c2ccnc(NC3CCN(S(N)(=O)=O)CC3)n2)s1` [Example 76, N-(3-(2-(tert-butyl)-5-(2-((1-sulfamoyl-piperidin-4-yl)amino)pyrimidin-4-yl)thiazol-4-yl)-2-fluorophenyl)-isoindoline-2-sulfonamide]: the IC50 came out at 65 nM.

Take `CC(C)(C)c1nc(-c2cccc(NS(=O)(=O)N3CCC4(CCCC4)C3)c2F)c(-c2ccnc(NC3CCN(S(C)(=O)=O)CC3)n2)s1` [Example 169, N-(3-(2-(tert-butyl)-5-(2-((1-(methylsulfonyl)-piperidin-4-yl)amino)-pyrimidin-4-yl)thiazol-4-yl)-2-fluoro-phenyl)-2-azaspiro [4.4]nonane-2-sulfonamide]: the IC50 was 2250 nM.

As to `CN(C)Cc1cccc2c1CN(S(=O)(=O)Nc1cccc(-c3nc(C(C)(C)C)sc3-c3ccnc(NC4CC5(C4)CS(=O)(=O)C5)n3)c1F)C2` [Example 197, N-(3-(2-(tert-butyl)-5-(2-((2,2-dioxido-2-thiaspiro[3.3]heptan-6-yl)amino)-pyrimidin-4-yl)thiazol-4-yl)-2-fluoro-phenyl)-4-((dimethylamino)methyl)-isoindoline-2-sulfonamide], the IC50 came out at 1080 nM.

With `CC(C)(C)c1nc(-c2cccc(NS(=O)(=O)N3CCCCC3c3ccccc3)c2F)c(-c2ccnc(NC3CCN(S(C)(=O)=O)CC3)n2)s1` (stereo not shown) [Example 67, N-(3-(2-(tert-butyl)-5-(2-((1-(methylsulfonyl)-piperidin-4-yl)amino)-pyrimidin-4-yl)thiazol-4-yl)-2-fluoro-phenyl)-2-phenylpiperidine-1-sulfonamide], the IC50 worked out at 8260 nM.

For `CC(C)(C)c1nc(-c2cccc(NS(=O)(=O)N3Cc4ccccc4C34CC4)c2F)c(-c2ccnc(NC3CCN(S(C)(=O)=O)CC3)n2)s1` [Example 256, N-(3-(2-(tert-butyl)-5-(2-((1-(methylsulfonyl)-piperidin-4-yl)amino)-pyrimidin-4-yl)thiazol-4-yl)-2-fluoro-phenyl)spiro [cyclopropane-1,1′-isoindoline]-2′-sulfonamide], the IC50 came to 3080 nM.

For `CCN(C)S(=O)(=O)Nc1cccc(-c2nc(C(C)(C)C)sc2-c2ccnc(NC3CC4(C3)CS(=O)(=O)C4)n2)c1F` [Example 194, N-(3-(2-(tert-butyl)-5-(2-((2,2-dioxido-2-thiaspiro[3.3]heptan-6-yl)amino)-pyrimidin-4-yl)thiazol-4-yl)-2-fluoro-phenyl)-N-methyl-N-ethylamine-sulfonamide], the IC50 was 1850 nM.

In the case of `O=S1(=O)CC2(CC(Nc3nccc(-c4sc(C56CC(C5)C6)nc4-c4cccc(NS(=O)(=O)N5CCc6ccccc6C5)c4F)n3)C2)C1` [Example 46, N-(3-(2-(bicyclo [1.1.1]pentan-1-yl)-5-(2-((2,2-dioxido-2-thiaspiro[3.3]heptan-6-yl)amino)-pyrimidin-4-yl)thiazol-4-yl)-2-fluorophenyl)-3,4-dihydroisoquinoline-2(1H)-sulfonamide], the IC50 was determined as 476 nM.
